According to EP1135374B9, “BENZIMIDAZOLE COMPOUNDS THAT ARE VITRONECTIN RECEPTOR ANTAGONISTS” (SCHERING CORPORATION, priority 1998, dated 2000):

Tests used:
[1] = target: T1, αvβ3 receptor (purified from human placenta) (Homo sapiens, UniProt P05106+P06756); test: competition radioligand binding assay, 125I-echistatin to αvβ3 receptor; details: Table 10; αvβ3, inhibition of specific 125I-echistatin binding
T1 construct: αvβ3 receptor (purified from human placenta); from tissue; host or cells: human placenta
Procedure: The following assay procedure, which is a competition radioligand binding assay, was carried out to determine the activity of the foregoing compounds as αvβ3 antagonists. The competitive assay procedure described in Kumar, et. al., "Biochemical Characterization Of The Binding Of Echistatin To Integrin αvβ3 Receptor", Journal Of Pharmacology And Experimental Therapeutics, Vol. 283, No. 2, pp. 843-853 (1997) was employed. Thus, binding of ^125I-echistatin (radiolabeled by the chloramine-T method to a specific activity of 2000 Ci/mmol (Amersham, Chicago, Il.)) to αvβ3 receptor (purified from human placenta), both prepared as described in Kumar, et al., was competed by the compounds prepared in the foregoing examples. Purified αvβ3 receptor was coated onto Microlite-2 plates at a concentration of 50 ng/well. ^125I-echistatin was added to the wells to a final concentration of 0.05 nM in binding buffer (50 µl/well) in the presence of the competing test compound. The competing test compounds were employed at serially diluted concentrations ranging from 1 pM to 100 nM. After a 3 hour incubation at room temperature, the wells were washed, and radioactivity, reflecting binding by ^125 I-echistatin to αvβ3 receptors, was determined with Top Count (Packard). Each data point is an average of values from triplicate wells.
Specific binding of ^125I-echistatin was calculated as the difference between the amount of ^125I-echistatin bound in the absence (total binding) and the amount of ^125I-echistatin bound in the presence of a 200-fold molar excess of unlabeled echistatin (nonspecific binding). The efficacy of the test compounds for inhibiting specific binding of ^125I-echistatin to αvβ3 receptors was determined by plotting a graph of specific binding (y-axis) as a function of test compound concentration (x-axis). The concentration of test compound required to inhibit 50% of the specific binding (IC50) was determined from the plot. The IC50 may be directly converted mathematically to Ki, which is a measure of the receptor binding affinity of the compounds under the defined assay conditions.

[2] = target: purified αllbβ3 receptor (Homo sapiens, UniProt P05106+P08514); test: similar competitive binding assay with 125I-echistatin on αllbβ3 receptor, used for the specificity index; details: Table 10; specificity index IC50 αllbβ3/ IC50 αvβ3
Procedure: To measure the relative affinity of the test compounds for αvβ3 receptors versus affinity for αllbβ3 receptors, similar competitive assays were carried out using purified αllbβ3 receptor and ^125I-echistatin (iodinated using the lactoperoxidase method). The specificity index, which is a measure of the relative binding affinity for αvβ3, versus αllbβ3, may be determined by dividing the IC50 value for αllbβ3 by the IC50 value for αvβ3.

Row | Compound | IC50 [1] [nM] | SPECIFICITY αIIbβ3 / αvβ3 [2]
1 | CC(C)C(=O)N(Cc1ccc(C(=O)NC[C@H](NC(=O)OCc2ccccc2)C(=O)O)cc1)Cc1nc2ccccc2[nH]1 [Example 5-13] | 3.1 | 38
2 | O=C(N[C@@H](CNC(=O)c1ccc(CN(Cc2nc3ccccc3[nH]2)C(=O)CCC2CCCC2)cc1)C(=O)O)OCc1ccccc1 [Example 5-14] | 5.8 | 117
3 | O=C(N[C@@H](CNC(=O)c1ccc(CN(Cc2nc3ccccc3[nH]2)C(=O)C2CCCCC2)cc1)C(=O)O)OCc1ccccc1 [Example 5-15] | 4.3 | 95
4 | O=C(N[C@@H](CNC(=O)c1ccc(CN(Cc2nc3ccccc3[nH]2)C(=O)CCc2ccccc2)cc1)C(=O)O)OCc1ccccc1 [Example 5-16] | 4.4 | 899
5 | CCOC(=O)CCC(=O)N(Cc1ccc(C(=O)NC[C@H](NC(=O)OCc2ccccc2)C(=O)O)cc1)Cc1nc2ccccc2[nH]1 [Example 5-17] | 4.6 | 76
6 | CC(=O)OC(C(=O)N(Cc1ccc(C(=O)NC[C@H](NC(=O)OCc2ccccc2)C(=O)O)cc1)Cc1nc2ccccc2[nH]1)c1ccccc1 (stereo partly drawn) [Example 5-18] | 4.4 | 82
7 | O=C(N[C@@H](CNC(=O)c1ccc(CN(Cc2nc3ccccc3[nH]2)C(=O)COc2ccccc2)cc1)C(=O)O)OCc1ccccc1 [Example 5-19] | 8.9 | 34
8 | CCOC(=O)N(Cc1ccc(C(=O)NC[C@H](NC(=O)OCc2ccccc2)C(=O)O)cc1)Cc1nc2ccccc2[nH]1 [Example 5-20] | 7.2 | 15
9 | COc1ccc(OC(=O)N(Cc2ccc(C(=O)NC[C@H](NC(=O)OCc3ccccc3)C(=O)O)cc2)Cc2nc3ccccc3[nH]2)cc1 [Example 5-21] | 4.4 | 41
10 | O=C(N[C@@H](CNC(=O)c1ccc(CN(Cc2nc3ccccc3[nH]2)C(=O)C2CC2c2ccccc2)cc1)C(=O)O)OCc1ccccc1 (stereo partly drawn) [Example 5-22] | 6.4 | 26
11 | CSCC(=O)N(Cc1ccc(C(=O)NC[C@H](NC(=O)OCc2ccccc2)C(=O)O)cc1)Cc1nc2ccccc2[nH]1 [Example 5-23] | 5.5 | 22
12 | CN(C)CC(=O)N(Cc1ccc(C(=O)NC[C@H](NC(=O)OCc2ccccc2)C(=O)O)cc1)Cc1nc2ccccc2[nH]1 [Example 5-24] | 5.3 | 14
13 | COCCC(=O)N(Cc1ccc(C(=O)NC[C@H](NC(=O)OCc2ccccc2)C(=O)O)cc1)Cc1nc2ccccc2[nH]1 [Example 5-25] | 4.5 | 52
14 | CCOCC(=O)N(Cc1ccc(C(=O)NC[C@H](NC(=O)OCc2ccccc2)C(=O)O)cc1)Cc1nc2ccccc2[nH]1 [Example 5-26] | 3.5 | 91
15 | O=C(N[C@@H](CNC(=O)c1ccc(CN(Cc2nc3ccccc3[nH]2)C(=O)Nc2ccccc2)cc1)C(=O)O)OCc1ccccc1 [Example 5-27] | 1.56 | 481
16 | O=C(N[C@@H](CNC(=O)c1ccc(CN(Cc2nc3ccccc3[nH]2)C(=O)NC2CCCCC2)cc1)C(=O)O)OCc1ccccc1 [Example 5-28] | 0.65 | 1136
17 | O=C(N[C@@H](CNC(=O)c1ccc(CN(Cc2nc3ccccc3[nH]2)C(=O)NCc2ccccc2)cc1)C(=O)O)OCc1ccccc1 [Example 5-29] | 4.3 | 144
18 | O=C(N[C@@H](CNC(=O)c1ccc(CN(Cc2nc3ccccc3[nH]2)C(=S)NCCc2ccccc2)cc1)C(=O)O)OCc1ccccc1 [Example 5-31] | 6 | 80
19 | CCOc1ccc(NC(=O)N(Cc2ccc(C(=O)NC[C@H](NC(=O)OCc3ccccc3)C(=O)O)cc2)Cc2nc3ccccc3[nH]2)cc1 [Example 5-32] | 6.5 | 151
20 | CN(Cc1ccc(C(=O)NC[C@H](NC(=O)OCc2ccccc2)C(=O)O)cc1)Cc1nc2ccccc2[nH]1 [Example 5-33] | 17 | 128

Row | Compound | IC50 [1] [nM] | SPECIFICITY αIIbβ3 / αvβ3 [2]
21 | CC(C)(C)NC(=O)N(Cc1ccc(C(=O)NC[C@H](NC(=O)OCc2ccccc2)C(=O)O)cc1)Cc1nc2ccccc2[nH]1 [Example 5-34] | 2.3 | 421
22 | O=C(N[C@@H](CNC(=O)c1ccc(CN(Cc2nc3ccccc3[nH]2)C(=O)Nc2ccc(Cl)cc2)cc1)C(=O)O)OCc1ccccc1 [Example 5-35] | 8.1 | 240
23 | CC(NC(=O)N(Cc1ccc(C(=O)NC[C@H](NC(=O)OCc2ccccc2)C(=O)O)cc1)Cc1nc2ccccc2[nH]1)c1cccc2ccccc12 (stereo partly drawn) [Example 5-36] | 11.7 | 129
24 | O=C(N[C@@H](CNC(=O)c1ccc(CN(Cc2nc3ccccc3[nH]2)C(=O)Nc2cccc3ccccc23)cc1)C(=O)O)OCc1ccccc1 [Example 5-37] | 5.3 | 203
25 | O=C(N[C@@H](CNC(=O)c1ccc(CN(Cc2nc3ccccc3[nH]2)C(=O)Nc2ccc(-c3ccccc3)cc2)cc1)C(=O)O)OCc1ccccc1 [Example 5-38] | 13.6 | 49
26 | CCCNC(=O)N(Cc1ccc(C(=O)NC[C@H](NC(=O)OCc2ccccc2)C(=O)O)cc1)Cc1nc2ccccc2[nH]1 [Example 5-39] | 3.1 | 223
27 | O=C(N[C@@H](CNC(=O)c1ccc(CN(Cc2nc3ccccc3[nH]2)C(=O)NC23CC4CC(CC(C4)C2)C3)cc1)C(=O)O)OCc1ccccc1 [Example 5-40] | 5.7 | 288
28 | O=C(N[C@@H](CNC(=O)c1ccc(CN(Cc2nc3ccccc3[nH]2)C(=O)N2CCOCC2)cc1)C(=O)O)OCc1ccccc1 [Example 5-42] | 1.8 | 39
29 | CCNC(=O)N(Cc1ccc(C(=O)NC[C@H](NC(=O)OCc2ccccc2)C(=O)O)cc1)Cc1nc2ccccc2[nH]1 [Example 5-43] | 2.2 | 585
30 | O=C(N[C@@H](CNC(=O)c1ccc(CN(Cc2nc3ccccc3[nH]2)C(=O)NS(=O)(=O)c2ccc(Cl)cc2)cc1)C(=O)O)OCc1ccccc1 [Example 5-44] | 19.6 | 66.3
31 | CCOC(=O)CNC(=O)N(Cc1ccc(C(=O)NC[C@H](NC(=O)OCc2ccccc2)C(=O)O)cc1)Cc1nc2ccccc2[nH]1 [Example 5-45, N^3-[4-[(benzimidazol-2-yl)methyl][[(ethoxycarbonylmethyl)amino]-carbonyl]aminomethylbenzoyl]-N^2-Cbz-1-2,3-diaminopropionic acid] | 2.2 | 1333
32 | COc1ccc(NC(=S)N(Cc2ccc(C(=O)NC[C@H](NC(=O)OCc3ccccc3)C(=O)O)cc2)Cc2nc3ccccc3[nH]2)cc1 [Example 5-46] | 2.7 | 1065
33 | CCOC(=O)c1ccc(NC(=O)N(Cc2ccc(C(=O)NC[C@H](NC(=O)OCc3ccccc3)C(=O)O)cc2)Cc2nc3ccccc3[nH]2)cc1 [Example 5-47] | 2.2 | 1252
34 | CCOC(=O)[C@H](CCSC)NC(=O)N(Cc1ccc(C(=O)NC[C@H](NC(=O)OCc2ccccc2)C(=O)O)cc1)Cc1nc2ccccc2[nH]1 [Example 5-48] | 1 | 2028
35 | O=C(N[C@@H](CNC(=O)c1ccc(CN(Cc2nc3ccccc3[nH]2)C(=O)Nc2ccc(F)cc2)cc1)C(=O)O)OCc1ccccc1 [Example 5-49] | 4.2 | 504
36 | CCOC(=O)[C@H](C)NC(=O)N(Cc1ccc(C(=O)NC[C@H](NC(=O)OCc2ccccc2)C(=O)O)cc1)Cc1nc2ccccc2[nH]1 [Example 5-50] | 3 | 805
37 | CCOC(=O)[C@@H](NC(=O)N(Cc1ccc(C(=O)NC[C@H](NC(=O)OCc2ccccc2)C(=O)O)cc1)Cc1nc2ccccc2[nH]1)C(C)C [Example 5-51] | 1.1 | 1210
38 | CCOC(=O)[C@H](Cc1ccccc1)NC(=O)N(Cc1ccc(C(=O)NC[C@H](NC(=O)OCc2ccccc2)C(=O)O)cc1)Cc1nc2ccccc2[nH]1 [Example 5-52] | 4 | 448
39 | CCOC(=O)[C@H](CC(C)C)NC(=O)N(Cc1ccc(C(=O)NC[C@H](NC(=O)OCc2ccccc2)C(=O)O)cc1)Cc1nc2ccccc2[nH]1 [Example 5-53] | 3.8 | 483
